Source: US8637665B2, “Pyrrolo[2,L-C][L,4]benzodiazepine-benzothiazole or benzoxazole conjugates linked through piperazine moiety and process for the preparation thereof” (priority 2010, dated 2014)
Where two headings read alike, the source gives them in different places.

How the values were obtained:
[1] = tested on: Colo 205 (colon cancer) cell line; assay: cells; format: cell-based; settings: for GI50: mean of three determinations; for CC50: read-out: LC50 Colo 205
Procedure: (§1) Anticancer activity: In vitro biological activity studies were carried out at the Advance Center for Treatment Research & Education in Cancer (ACTREC), Navi Mumbai.
(§2) The compounds were evaluated for in vitro anticancer activity against eight tumour cells lines derived from seven cancer types (non-small-cell lung, colon, oral, cervix, ovarian, prostate, and breast cancer) as shown in Table 2. For each compound, dose response curves for each cell line were measured at a minimum of five concentrations at 10 fold dilutions. A protocol of 48 h continuous drug exposure was used and a sulforhodamine B (SRB) protein assay was used to estimate cell viability or growth. The concentration causing 50% cell growth inhibition (GI50) and 50% cell death (LC50, −50% growth) compared with the control was calculated. Compounds 9a-9l have been evaluated for their in vitro cytotoxicity in eight cell lines from seven human cancer types of lung (Hop-62, A-549) colon (COLO-205) cervix (Si—Ha), ovary (A-2780), prostate (PC3) breast (MCF7), oral (KB). The results are expressed as percent of cell growth determined relative to that of untreated control cells (Table-8 and table-9).

[2] = tested on: SiHa (cervix cancer) cell line; assay: cells; format: cell-based; settings: for GI50: mean of three determinations; for LC50 (concentration causing 50% cell death): read-out: LC50 SiHa, 50% cell death
Procedure: as §1, §2

[3] = tested on: A 549 (lung cancer) cell line; assay: cells; format: cell-based; settings: for GI50: mean of three determinations
Procedure: as §1, §2

[4] = tested on: PC 3 (prostate cancer) cell line; assay: cells; format: cell-based; settings: for GI50: read-out: GI50 PC 3; for CC50: read-out: LC50 Pc 3, 50% cell death
Procedure: as §1, §2

[5] = tested on: HOP 62 (lung cancer) cell line; assay: cells; format: cell-based; settings: for GI50: mean of three determinations; for LC50: read-out: LC50 HOP 62, 50% cell death
Procedure: as §1, §2

[6] = tested on: MCF 7 (breast cancer) cell line; assay: cells; format: cell-based; settings: for GI50: read-out: GI50 MCF 7; for LC50 (concentration causing 50% cell death): read-out: LC50 MCF 7, 50% cell death
Procedure: as §1, §2

[7] = tested on: A 2780 (ovary cancer) cell line; assay: cells; format: cell-based; settings: for GI50: mean of three determinations; for CC50: read-out: LC50 A 2780, 50% cell death
Procedure: as §1, §2

[8] = tested on: eight tumour cells lines derived from seven cancer types; assay: In vitro anticancer activity, SRB assay, panel of eight cell lines; format: cell-based; settings: Homo sapiens, range over the eight cell lines per compound; read-out: GI50 range against cancer cell lines
Procedure: as §1, §2

[9] = tested on: duplex-form calf thymus DNA (CT-DNA); assay: Thermal denaturation studies with calf thymus DNA (DNA binding affinity); settings: [PBD]:[DNA] 1:5, CT-DNA 100 μM, ligand 20 μM, pH 7.00
Procedure: Compounds have been subjected to thermal denaturation studies with duplex-form calf thymus DNA (CT-DNA) using an modification of a reported procedure (Newman, M. S. Carcinog-compr. Surv. 1976,1, 203; (b) Hecht, S. S.; Loy, M.; Hoffman, Carcinog-compr. Surv. 1976, 1, 325). Working solutions in aqueous buffer (10 mM NaH2PO4/Na2HPO4, 1 mM Na2EDTA, pH 7.00+0.01) containing CT-DNA (100 μm in phosphate) and the PBD (20 μm) have been prepared by addition of concentrated PBD solutions in DMSO to obtain a fixed [PBD]/[DNA] molar ratio of 1:5. The DNA-PBD solutions have been incubated at 37° C. for 0 and 18 h prior to analysis. Samples have been monitored at 260 using a Beckman DU-800 spectrophotometer fitted with high performance temperature controller, and heated at 1° C. min^−1 in the 40-110° C. range. DNA helix→coil transition temperatures (Tm) have been obtained from the maxima in the d(A260)/dT derivative plots. Drug-induced alterations in DNA melting behavior are given by: ΔTm=Tm(DNA+PBD)−Tm(DNA alone), where the Tm value for the PBD-free CT-DNA is 69.1±0.01.
The DNA binding activity for these novel C8-linked benzothiazole, benzoxazole-PBD hybrids has been examined by thermal denaturation studies using calf thymus (CT) DNA. […] The data for the compounds 9a-n is included in Table 7 for comparison.

[10] = tested on: KB (oral cancer) cell line; assay: In vitro anticancer activity, SRB assay, KB; format: cell-based, human; settings: for GI50: mean of three determinations; for CC50: read-out: LC50 KB, 50% cell death
Procedure: as §1, §2

[11] = Homo sapiens, COLO 205, 48 h, read-out: GI50 Colo 205, 48 h drug exposure, SRB
[12] = Homo sapiens, SiHa, 48 h, read-out: GI50 SiHa, 48 h drug exposure, SRB
[13] = Homo sapiens, SiHa, 48 h, 48 h drug exposure, SRB
[14] = Homo sapiens, A549, 48 h, read-out: GI50 A 549, 48 h drug exposure, SRB
[15] = Homo sapiens, A549, 48 h, read-out: LC50 A 549, 50% cell death, 48 h drug exposure, SRB
[16] = Homo sapiens, 48 h, 48 h drug exposure, SRB
[17] = Homo sapiens, HOP-62, 48 h, read-out: GI50 HOP 62, 48 h drug exposure, SRB
[18] = Homo sapiens, HOP-62, 48 h, 48 h drug exposure, SRB
[19] = Homo sapiens, MCF7, 48 h, 48 h drug exposure, SRB
[20] = Homo sapiens, A2780, 48 h, read-out: GI50 A 2780, 48 h drug exposure, SRB
[21] = Homo sapiens, A2780, 48 h, 48 h drug exposure, SRB
[22] = Homo sapiens, 48 h, read-out: GI50 KB, 48 h drug exposure, SRB
[23] = read-out: GI50 HOP 62, 48 h drug exposure, SRB
[24] = 48 h drug exposure, SRB, mean of three determinations

| SMILES | GI50 [1, 11] [µM] | CC50 ([1]; Homo sapiens, COLO 205, 48 h) [µM] | GI50 [2, 12] [µM] | LC50 (concentration causing 50% cell death) [2, 13] [µM] | GI50 [3, 14] [µM] | CC50 [3, 15] [µM] | GI50 ([4]; Homo sapiens, 48 h) [µM] | CC50 [4, 16] [µM] | GI50 [5, 17] [µM] | LC50 [5, 18] [µM] | GI50 ([6]; Homo sapiens, MCF7, 48 h) [µM] | LC50 (concentration causing 50% cell death) [6, 19] [µM] | GI50 [7, 20] [µM] | CC50 [7, 21] [µM] | GI50 [8] [µM] | ΔTm after incubation at 37° C. for 0 h [9] [°C] | ΔTm after incubation at 37° C. for 18 h [9] [°C] | GI50 [10, 22] [µM] | CC50 [10, 16] [µM] | GI50 [5, 23] [µM] | also measured |
| --- | --- | --- | --- | --- | --- | --- | --- | --- | --- | --- | --- | --- | --- | --- | --- | --- | --- | --- | --- | --- | --- |
| COc1cc2c(cc1OCCCCN1CCN(CCCCOc3ccc(-c4nc5ccc(F)cc5s4)cc3)CC1)N=C[C@@H]1CCCN1C2=O [Compound 9g, 7-Methoxy-8-[4-(4-{4-[4(6-fluoro-1,3-benzothiazol-2-yl)-phenoxy]butyl}piperazin-1-yl)butyl]oxy-(11aS)-1,2,3,11a-tetrahydro-5H-pyrrolo[2,1-c][1,4]benzodiazepin-5-one] | 0.1 | > 100 | 0.168 | 0.311 | < 0.01 | > 100 | 0.16 | 31 | 0.16 | > 100 | 0.14 | 2.4 | 0.147 | 2.25 | ≤ 0.168 | 12.3 | 12.6 | 0.16 | > 100 |  |  |
| COc1cc2c(cc1OCCCN1CCN(CCCOc3ccc(-c4nc5ccccc5o4)cc3)CC1)N=C[C@@H]1CCCN1C2=O [Compound 9i] | < 0.01 | > 100 | 0.117 | 28.5 | < 0.01 | > 100 | < 0.01 | 0.23 | 0.11 | 27 | < 0.01 | 0.15 | 0.08 | 2.25 | ≤ 0.117 | 9.5 | 9.7 | < 0.01 | 28 |  |  |
| COc1cc(-c2nc3ccccc3o2)ccc1OCCCN1CCN(CCCOc2cc3c(cc2OC)C(=O)N2CCC[C@H]2C=N3)CC1 [Compound 9j] | 0.11 | > 100 | < 0.01 | 28 | < 0.01 | > 100 | < 0.01 | 2.5 | < 0.01 | 2.3 | < 0.01 | < 0.01 | < 0.01 | 0.139 | ≤ 0.11 | 10.1 | 10.3 | < 0.01 | 0.2 |  |  |
| COc1cc2c(cc1OCCCN1CCN(CCCOc3cccc(-c4nc5ccccc5o4)c3)CC1)N=C[C@@H]1CCCN1C2=O [Compound 9k, 7-Methoxy-8-[3-(4-{3-[3(1,3-benzoxazol-2-yl)-phenoxy]propyl}piperazin-1-yl)propyl]oxy-(11aS)-1,2,3,11a-tetrahydro-5H-pyrrolo[2,1-c][1,4]benzodiazepin-5-one] | 0.17 | > 100 | 0.13 | 27.8 | < 0.01 | > 100 | < 0.01 | 26 |  | 25 | < 0.01 | 2.6 | 0.086 | 2.16 | ≤ 0.17 | 9.7 | 10.2 | 0.11 |  | 0.01 |  |
| COc1cc2c(cc1OCCCCN1CCN(CCCCOc3ccc(-c4nc5ccccc5s4)cc3)CC1)N=C[C@@H]1CCCN1C2=O [Compound 9l, 7-Methoxy-8-[4-(4-{4-[4(1,3-benzothiazol-2-yl)-phenoxy]butyl}piperazin-1-yl)butyl]oxy-(11aS)-1,2,3,11a-tetrahydro-5H-pyrrolo[2,1-c][1,4]benzodiazepin-5-one] |  | > 100 |  | 28 |  |  |  | 2.1 |  |  |  | 0.16 |  | 2.1 | ≤ 0.125 | 11.5 | 11.8 |  | 2 | 0.11 | GI50 ([1]; read-out: GI50 Colo 205, 48 h drug exposure, SRB): < 0.01 µM; GI50 ([2]; read-out: GI50 SiHa, 48 h drug exposure, SRB): 0.125 µM; CC50 ([3]; human, 48 h): 30 µM; GI50 ([3]; read-out: GI50 A 549, 48 h drug exposure, SRB): < 0.01 µM; GI50 [4, 24]: < 0.01 µM; CC50 ([5]; human, 48 h): 2.5 µM; GI50 [6, 24]: < 0.01 µM; GI50 ([7]; read-out: GI50 A 2780, 48 h drug exposure, SRB): 0.099 µM; GI50 ([10]; 48 h drug exposure, SRB, listed as 91, read-out: GI50 KB): 0.11 µM; GI50 ([10]; 48 h drug exposure, SRB, read-out: GI50 KB): 0.11 µM |
